Measured values from US10864248B2, “Dab2 inhibitors for the prevention and treatment of cystic fibrosis” (Trustees of Dartmouth College, priority 2014, dated 2020).
Like-named read-outs stand apart in the source and are kept apart here. Peptide text beside a SMILES is read from it. * marks the point of attachment. Biotin = O=C1N[C@H]2[C@H](CS[C@H]2CCCCC(=O)*)N1; Ahx = NCCCCCC(=O)O

What was measured:
p67-isoform of Dab2 = p67-isoform of Dab2 (Homo sapiens (Human), UniProt P98082); assay: Peptide pull-down from CFBE cell lysates and western blot; format: binding; conditions: CFBE cell lysates, western blot
p67-isoform of Dab2, sequence (P98082 other isoform, or with tags, fused parts or gaps): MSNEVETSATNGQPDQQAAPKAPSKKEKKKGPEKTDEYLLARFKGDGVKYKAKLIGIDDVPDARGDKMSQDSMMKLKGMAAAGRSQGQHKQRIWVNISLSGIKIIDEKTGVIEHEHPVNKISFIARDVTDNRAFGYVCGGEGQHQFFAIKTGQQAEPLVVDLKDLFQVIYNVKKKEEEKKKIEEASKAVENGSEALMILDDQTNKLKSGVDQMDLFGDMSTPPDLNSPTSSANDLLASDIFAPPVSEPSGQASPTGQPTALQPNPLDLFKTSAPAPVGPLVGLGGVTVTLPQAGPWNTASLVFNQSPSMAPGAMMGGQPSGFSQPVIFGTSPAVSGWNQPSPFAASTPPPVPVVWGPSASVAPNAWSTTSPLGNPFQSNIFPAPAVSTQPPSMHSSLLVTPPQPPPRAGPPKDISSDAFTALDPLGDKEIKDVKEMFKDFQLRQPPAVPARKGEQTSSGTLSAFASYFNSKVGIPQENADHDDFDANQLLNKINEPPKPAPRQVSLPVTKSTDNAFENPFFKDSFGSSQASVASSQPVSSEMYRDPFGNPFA
Protocol: (§1) Peptide Pull-down and Western Blotting. Streptavidin-paramagnetic particles (Promega) were washed twice with wash buffer (50 mM Tris pH 8.0, 150 mM NaCl, 2 mM EGTA, 2 mM EDTA, 5% glycerol, 1 mM DTT) and incubated with 20 μM BT-STA02 (N-terminally biotinylated STA02) for 1 hour on a rotator at 4° C. Beads were then washed twice with wash buffer and once with lysis buffer (50 mM Tris pH 8.0, 150 mM NaCl, 2 mM EGTA, 2 mM EDTA, 5% glycerol, 1 mM DTT, 1% IGEPAL, complete protease inhibitor tablet (Roche)) before incubation with cell lysate. CFBE cells were washed twice with cold PBS, incubated with lysis buffer for 20 minutes shaking at 4° C., scraped, passed through a 27G1/2 syringe, and spun at 13000 rpm for 15 minutes at 4° C. The supernatant was incubated with BT-STA02-coated beads for 2 hours on a rotator at 4° C. Beads were then washed twice with wash buffer and bound protein was eluted with Laemmli sample buffer (Bio-Rad) at 45° C. for 10 minutes. Samples were run on a 7.5% SDS-PAGE gel and probed with anti-Dab2 (BD Biosciences) or anti-p96 Dab2 (Epitomics).
(§2) Since Dab2 is a multi-modular adaptor protein, it was determined whether STA02 binding to the DH domain occurred with the full-length (FL) protein and in the context of other cellular interacting partners. To this end, the binding of STA02 to FL-Dab2 from bronchial epithelial (CFBE) cell lysates was tested in a pull-down assay. […]

p96-isoform of Dab2 = p96-isoform of Dab2 (Homo sapiens (Human), UniProt P98082); assay: as above; format: binding; conditions: CFBE cell lysates, western blot
p96-isoform of Dab2, sequence (P98082 whole entry, canonical isoform): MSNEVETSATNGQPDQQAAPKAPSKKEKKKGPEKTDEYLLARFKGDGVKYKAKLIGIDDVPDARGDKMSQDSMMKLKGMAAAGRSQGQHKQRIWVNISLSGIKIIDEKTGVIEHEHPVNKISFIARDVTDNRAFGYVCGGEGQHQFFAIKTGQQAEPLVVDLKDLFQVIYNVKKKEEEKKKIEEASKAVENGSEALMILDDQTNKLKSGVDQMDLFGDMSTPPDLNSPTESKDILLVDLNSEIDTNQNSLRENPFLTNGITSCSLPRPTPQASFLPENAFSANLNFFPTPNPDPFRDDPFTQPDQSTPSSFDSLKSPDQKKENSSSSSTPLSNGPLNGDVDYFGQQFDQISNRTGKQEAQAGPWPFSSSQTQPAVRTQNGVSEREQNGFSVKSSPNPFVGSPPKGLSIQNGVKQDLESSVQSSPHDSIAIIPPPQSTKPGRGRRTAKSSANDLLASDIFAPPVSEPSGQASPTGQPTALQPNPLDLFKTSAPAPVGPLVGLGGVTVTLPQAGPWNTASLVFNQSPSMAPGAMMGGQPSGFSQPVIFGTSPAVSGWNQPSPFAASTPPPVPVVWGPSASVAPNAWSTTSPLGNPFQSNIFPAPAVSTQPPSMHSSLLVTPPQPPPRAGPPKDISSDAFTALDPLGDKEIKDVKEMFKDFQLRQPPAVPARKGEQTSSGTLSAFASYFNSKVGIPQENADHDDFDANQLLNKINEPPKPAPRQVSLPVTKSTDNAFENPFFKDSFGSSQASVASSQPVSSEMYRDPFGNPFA
Protocol: as §1, §2

Dab2-DH domain [1] = target: T1, Dab2-DH domain (Homo sapiens (Human), UniProt P98082); assay: Fluorescence polarization competition assay to identify small molecule inhibitors; format: binding; design: key to Ki: n.a., not active; +, fluorescence change with FP; conditions: FP competition
T1 sequence (P98082 33-191): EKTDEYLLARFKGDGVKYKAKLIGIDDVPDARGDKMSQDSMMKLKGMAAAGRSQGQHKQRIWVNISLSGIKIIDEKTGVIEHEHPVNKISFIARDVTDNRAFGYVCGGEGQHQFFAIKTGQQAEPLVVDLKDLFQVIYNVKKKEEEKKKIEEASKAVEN
Protocol: Fluorescence Polarization Competition Assay to Identify Small Molecule Inhibitors. […] Unlabeled competitor peptide (STA02) or compound hits were serially diluted and mixed with the protein-reporter mix. Percent DMSO in all samples was 1%. Plates were mixed by vibration, centrifuged at 1200 g for 2 minutes and allowed to equilibrate at room temperature for 30-45 minutes before measurement. Fluorescence polarization was measured at an excitation wavelength of 470±5 nm and an emission wavelength of 525±20 nm. Data analysis and calculation of binding affinities were as described above.
To test the validity of these hits on a smaller scale and to quantify the binding potencies (Ki values), an FP competition assay was carried out.

CFBE cells = assay: Toxicity assay (LDH); format: cell-based, human; conditions: for toxicity, of maximum toxicity (1% TRITON): 3 or 12 hours
Protocol: Toxicity and Cell Viability Assays. CFBE cells were seeded at 5×10^3 in 96-well plates. Cells were treated in fetal bovine serum (FBS)-free minimum essential medium (MEM, Gibco). Assays were performed and measured according to the CYTOTOX 96 Non-Radioactive cytotoxicity Assay (G1780) kit (Promega) and the […] 96 Aqueous One solution Cell proliferation Assay kit (Promega) instructions. Percent toxicity for the LDH assay was calculated as: […]
A background signal of 0.2% DMSO in media from a well without cells was subtracted from all readings before the above-referenced calculations.

ΔF508-CFTR = ΔF508-CFTR (Homo sapiens (Human), UniProt P13569, DEL508-508); assay: Short-circuit current (Isc), chloride currents in combination therapy; conditions: for chloride currents: 20 μM, in parallel with VX809 0.1 μM (48 hours) and Kalydeco (acutely), CFBE cells
[2] = test system: subjects with the G551D mutation; conditions: 48-week clinical trial; cited from earlier work
CF patients = conditions: in combination with KALYDECO; cited from earlier work
Dab2-DH domain [3] = target: T1, Dab2-DH domain; assay: Fluorescence polarization competition binding of unlabeled peptides (reporter F*-STA02); conditions: STA02 compared to STA01
Protocol: Fluorescence Polarization. Fluorescence polarization (FP) data were measured on a microplate reader (Tecan Infinite M1000, Mannedorf, Switzerland) at 27° C. […] Plates were mixed by vibration, centrifuged for 2 minutes at 1200 g to remove air bubbles and allowed to equilibrate for 30 minutes at room temperature before measurement. […] Unlabeled competitor peptides were serially diluted and mixed with the protein-reporter mix. […] [formula] where [P]tot=total protein concentration and Kd=equilibrium dissociation constant of [PL]. Competition isotherms were fit using a non-linear least-squares algorithm implemented in EXCEL using the SOLVER function. rexp was fit to: [formula] where the free protein concentration [P] in the presence of both the reporter and competitive inhibitor was calculated as a function of the total protein and ligand concentrations and the equilibrium dissociation constant Kd (known) and Ki (fit), respectively, by exact analytical solution of the resulting cubic equation (Wang, et al. (1995) Biotechnol. Prog. 11:558-64).

Dab2-DH domain [4] = target: T1, Dab2-DH domain; assay: Isothermal titration calorimetry; format: binding
Protocol: Isothermal Titration calorimetry. Dab2-DH protein was dialyzed versus 150 mM NaCl, 25 mM Tris pH 8.0, and 0.02% NaN3 or 150 mM NaCl, 25 mM NaH2PO4/Na2HPO4 pH 7.4, and 0.02% NaN3. Peptides were solubilized in recovered and degassed dialysis buffer. […] Thus, to maintain a constant DMSO concentration between the cell chamber (protein solution) and the syringe (peptide solution), 1-2% DMSO was added to the ITC-protein solution. Experiments were performed at 15, 25, or 35±0.2° C. on a MICROCAL VP-ITC calorimeter. A 2 μL peptide injection over 4.1 seconds preceded 30-10 μL injections over 300 seconds each. The system was allowed to equilibrate (reach baseline) between injections for 300 seconds while stirring at a speed of 300 rpm. ITC thermograms were fit to a single-site binding model using Origin software package v11. The ITC data were presented by showing the baseline-adjusted titration as heat flow versus time (top) and the peak-integrated concentration-normalized molar heat flow per injection versus the peptide: protein molar ratio (bottom). To account for the contribution of protein, peptide, and buffer protonation enthalpies to the binding enthalpies and consequently the binding constants, titrations in buffers with known and distinct heats of ionization (Tris and Phosphate buffers) were conducted.

[5] = reporter F*-STA02, read-out: Ki

For CSCC[C@H](NC(=O)[C@H](CC(N)=O)NC(=O)[C@H](CCC(=O)O)NC(=O)[C@H](CCC(N)=O)NC(=O)[C@@H]1CCCN1C(=O)[C@H](CCC(N)=O)NC(=O)[C@H](Cc1ccc(O)cc1)NC(=O)[C@H](CC(N)=O)NC(=O)[C@@H]1CCCN1C(=O)[C@H](CC(N)=O)NC(=O)[C@H](CC(=O)O)NC(=O)[C@H](Cc1ccccc1)NC(=O)CNC(=O)CNC(=O)[C@H](CO)NC(=O)CNC(=O)[C@H](CO)NC(=O)CCCCCNC(=O)CCCC[C@@H]1SC[C@@H]2NC(=O)N[C@@H]21)C(=O)N[C@@H](CCC(N)=O)C(=O)N[C@@H](C)C(=O)O [BT-STA02] ({Biotin-Ahx}-SGSGGFDNPNYQPQENMQA-OH; C-terminus assumed), the “binding of p67-isoform of Dab2” value (p67-isoform of Dab2) was “did not” and the “binding of p96-isoform of Dab2” value (p96-isoform of Dab2) was “bound”.

With CN1CCc2cccc3c2[C@@H]1Cc1ccc(O)c(O)c1-3.Cl [Compound 1, S(+)-10,11-Dihydroxyaporphine Hydrochloride] the Ki (Dab2-DH domain [1]; [5]) was 1920 nM, the “toxicity, of maximum toxicity (1% TRITON)” value (CFBE cells; 40 μM) was 10% and the toxicity (CFBE cells; 40 μM, 24 hours) was 20-40%. The chloride currents (ΔF508-CFTR) was “enhanced chloride currents”.

For C[C@]12CC[C@@H]3c4cc(O)c(O)cc4CC[C@H]3[C@@H]1CC[C@@H]2O [Compound 2, 2-Hydroxyestradiol], the “toxicity, of maximum toxicity (1% TRITON)” value (CFBE cells; 40 μM) was 10%.

In the case of CC1(C)Cc2ccccc2-c2n[nH]c(=S)n21 [Compound 3, 5,5-dimethyl-5,6-dihydro [1,2,4]triazolo[3,4-a] isoquinoline-3(2H)-thione], the Ki (Dab2-DH domain [1]; [5]) is reported as 779 nM, the Ki (Dab2-DH domain [1]; read-out: binding affinity (Ki)) is reported as 779 nM and the toxicity (CFBE cells; 3 hours) is reported as “no toxicity”. The “benefit compared to VX809 (ANOVA, P<0.05)” value (ΔF508-CFTR; 20 μM in combination with VX809 0.1 μM) was “statistically significant benefit” and the chloride currents (ΔF508-CFTR) was “enhanced chloride currents”.

With OCCN(CCO)c1nc(N2CCCCC2)c2nc(N(CCO)CCO)nc(N3CCCCC3)c2n1 [Compound 5, Dipyridamole] the Ki (Dab2-DH domain [1]; symbols) was “+” and the total fluorescence (Dab2-DH domain [1]; Ki not obtained) was “increased total fluorescence”.

In the case of CC(C)(C)c1cc(C(C)(C)C)c(NC(=O)c2c[nH]c3ccccc3c2=O)cc1O [KALYDECO, N-(2,4-Di-tert-butyl-5-hydroxyphenyl)-4-oxo-1,4-dihydroquinoline-3-carboxamide], the “drop in pulmonary exacerbations” value [2] is given as 55%, the “improvement in lung function (predicted FEV1)” value [2] is given as 10.6% and the “reduction in sweat chloride” value [2] is given as 48 mEq/L.

In the case of Cc1ccc(NC(=O)C2(c3ccc4c(c3)OC(F)(F)O4)CC2)nc1-c1cccc(C(=O)O)c1 [Lumacaftor, 3-{6-{[1-(2,2-difluoro-1,3-benzodioxo1-5-yl)cyclopropanecarbonyl]amino}-3-methylpyridin-2-yl}benzoic acid], the “patients with >5% increase in FEV1” value (CF patients) is given as 55% and the “patients with >10% increase in FEV1” value (CF patients) is given as 25%.

In the case of CSCC[C@H](NC(=O)[C@H](CC(N)=O)NC(=O)[C@H](CCC(=O)O)NC(=O)[C@H](CCC(N)=O)NC(=O)[C@@H]1CCCN1C(=O)[C@H](CCC(N)=O)NC(=O)[C@H](Cc1ccc(O)cc1)NC(=O)[C@H](CC(N)=O)NC(=O)[C@@H]1CCCN1C(=O)[C@H](CC(N)=O)NC(=O)[C@H](CC(=O)O)NC(=O)[C@H](Cc1ccccc1)NC(=O)CNC(=O)[C@H](CC(N)=O)NC(=O)[C@@H](N)CCC(N)=O)C(=O)N[C@@H](CCC(N)=O)C(=O)N[C@@H](C)C(=O)O [STA02], the “increase in binding affinity” value (Dab2-DH domain [3]) is reported as 2 fold, the “net release of protons during binding (NH+)” value (Dab2-DH domain [4]; Tris and phosphate buffers) is reported as 0.04 per mole and the ΔH (Dab2-DH domain [4]; Tris buffer, 25° C.) is reported as -20.7 ± 1.45 kcal/mol. It also gave a ΔS (Dab2-DH domain [4]; Tris buffer, 25° C.) of −37.8 cal/mol/K, a TΔS (Dab2-DH domain [4]; estimated, 37° C.) of -16.1 kcal/mol and a ΔG (Dab2-DH domain [4]; estimated, 37° C.) of -8.9 kcal/mol. The ΔH (Dab2-DH domain [4]; estimated, 37° C.) was -25.0 kcal/mol and the “change of heat capacity, ΔCp” value (Dab2-DH domain [4]; from ΔH at 15, 25, and 35° C.) was −320 cal/mol/K.
